Data from US8415469B2, “Compounds and methods for kinase modulation, and indications therefor” (Plexxikon Inc., priority 2005, dated 2013).
pIC50: −log10 of the molar value.

Assays:
Format in all cases: biochemical
Kit = biological target: T1, Kit (Homo sapiens, UniProt P10721); test: AlphaScreen kinase assay, Kit; details: read-out: IC50, activity toward kinase Kit
T1 construct: P1332.N6 BI PTP KIT M552-K948-X COD; His6 (N); made in house; host or cells: E. coli (PTP1B co-expressed)

B-Raf = biological target: T2, B-Raf (Homo sapiens, UniProt P15056); test: AlphaScreen kinase assay, B-Raf; details: read-out: IC50, activity toward kinase B-Raf
T2 construct: purchased Upstate Biotechnology
T2 sequence (P15056 whole entry): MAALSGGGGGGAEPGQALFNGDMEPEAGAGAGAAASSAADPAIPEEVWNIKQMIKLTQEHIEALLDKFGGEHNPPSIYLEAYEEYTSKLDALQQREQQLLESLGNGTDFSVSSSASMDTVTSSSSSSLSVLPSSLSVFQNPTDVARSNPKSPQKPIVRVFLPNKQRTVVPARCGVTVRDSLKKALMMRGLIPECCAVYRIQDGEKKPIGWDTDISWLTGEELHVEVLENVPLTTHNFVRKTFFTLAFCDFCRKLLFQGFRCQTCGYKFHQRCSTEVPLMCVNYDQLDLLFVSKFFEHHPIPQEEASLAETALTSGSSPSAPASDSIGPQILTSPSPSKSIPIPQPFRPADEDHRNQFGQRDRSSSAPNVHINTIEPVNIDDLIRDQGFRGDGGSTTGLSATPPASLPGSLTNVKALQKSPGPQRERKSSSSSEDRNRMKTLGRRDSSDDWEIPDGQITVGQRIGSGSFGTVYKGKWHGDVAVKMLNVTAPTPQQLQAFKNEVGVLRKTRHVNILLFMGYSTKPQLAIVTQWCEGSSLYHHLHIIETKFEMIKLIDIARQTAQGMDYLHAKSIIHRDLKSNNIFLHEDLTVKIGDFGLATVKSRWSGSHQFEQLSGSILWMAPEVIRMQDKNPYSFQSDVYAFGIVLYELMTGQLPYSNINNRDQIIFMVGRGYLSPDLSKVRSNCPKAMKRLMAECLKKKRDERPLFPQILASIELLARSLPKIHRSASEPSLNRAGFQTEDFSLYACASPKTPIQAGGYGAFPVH

Yes = biological target: T3, Yes (Homo sapiens, UniProt P07947); test: Z'-Lyte FRET kinase assay (Invitrogen), Yes; details: read-out: IC50, activity toward kinase Yes
T3 construct: purchased Invitrogen (Carlsbad, Calif.), screening service
T3 sequence (P07947 whole entry): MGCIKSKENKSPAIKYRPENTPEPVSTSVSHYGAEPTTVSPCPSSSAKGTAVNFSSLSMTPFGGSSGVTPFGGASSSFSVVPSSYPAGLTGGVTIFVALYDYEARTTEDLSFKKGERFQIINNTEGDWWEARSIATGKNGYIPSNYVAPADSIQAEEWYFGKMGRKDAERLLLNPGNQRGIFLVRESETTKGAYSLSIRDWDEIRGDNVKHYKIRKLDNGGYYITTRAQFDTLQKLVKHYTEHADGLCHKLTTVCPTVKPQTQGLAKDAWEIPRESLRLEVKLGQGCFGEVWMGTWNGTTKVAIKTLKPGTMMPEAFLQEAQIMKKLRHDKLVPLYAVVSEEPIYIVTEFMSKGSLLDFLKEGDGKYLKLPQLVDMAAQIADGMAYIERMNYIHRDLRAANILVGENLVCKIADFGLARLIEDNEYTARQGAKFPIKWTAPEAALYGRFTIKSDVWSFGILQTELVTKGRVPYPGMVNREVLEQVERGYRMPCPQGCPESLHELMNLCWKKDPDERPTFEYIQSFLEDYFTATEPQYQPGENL
Outline: (§1)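 Read-out is the coumarin-to-fluorescein emission ratio, which rises when unphosphorylated peptide is cleaved by the development protease. Reactions contain serially diluted compound, 2 μM peptide and 10 μM ATP and run for 1 h at room temperature before 1 h development.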

Fms = biological target: T4, Fms (Homo sapiens, UniProt P07333); test: AlphaScreen kinase assay, Fms; details: read-out: IC50, activity toward kinase Fms
T4 construct: purchased Upstate Biotechnology
T4 sequence (P07333 20-972): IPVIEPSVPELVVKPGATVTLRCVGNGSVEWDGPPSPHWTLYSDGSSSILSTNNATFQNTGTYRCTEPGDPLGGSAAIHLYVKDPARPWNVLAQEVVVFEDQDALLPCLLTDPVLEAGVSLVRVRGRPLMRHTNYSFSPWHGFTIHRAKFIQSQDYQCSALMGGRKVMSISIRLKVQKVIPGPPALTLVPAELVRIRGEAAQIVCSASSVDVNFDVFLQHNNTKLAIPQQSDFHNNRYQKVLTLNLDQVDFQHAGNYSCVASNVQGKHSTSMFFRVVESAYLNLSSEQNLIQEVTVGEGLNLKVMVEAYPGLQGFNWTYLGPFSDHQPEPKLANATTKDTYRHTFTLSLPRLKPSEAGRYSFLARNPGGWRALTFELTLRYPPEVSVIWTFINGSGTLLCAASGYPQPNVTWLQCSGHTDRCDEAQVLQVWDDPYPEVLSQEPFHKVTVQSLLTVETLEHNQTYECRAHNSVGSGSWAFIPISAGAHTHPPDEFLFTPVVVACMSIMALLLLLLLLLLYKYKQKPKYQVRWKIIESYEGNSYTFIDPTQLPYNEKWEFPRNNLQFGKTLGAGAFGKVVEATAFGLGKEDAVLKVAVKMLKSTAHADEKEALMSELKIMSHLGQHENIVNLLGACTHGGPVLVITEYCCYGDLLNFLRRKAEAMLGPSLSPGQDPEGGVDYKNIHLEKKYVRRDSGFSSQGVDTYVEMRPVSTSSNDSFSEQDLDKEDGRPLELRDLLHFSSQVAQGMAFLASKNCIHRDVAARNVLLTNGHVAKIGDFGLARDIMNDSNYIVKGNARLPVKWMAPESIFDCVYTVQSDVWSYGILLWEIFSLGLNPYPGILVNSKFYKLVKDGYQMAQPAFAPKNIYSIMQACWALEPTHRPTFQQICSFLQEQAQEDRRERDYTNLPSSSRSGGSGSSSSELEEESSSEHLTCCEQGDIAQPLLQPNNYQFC

B-Raf V600E = biological target: T5, B-Raf V600E (Homo sapiens, UniProt P15056, V600E); test: AlphaScreen kinase assay, B-Raf V600E; details: read-out: IC50, activity toward kinase B-Raf V600E
T5 construct: P4254. pFastBacBD-CDC37 BRAF D437-K722-X, V600E; His6 with pFastBac HT leader (TEV site) (N); made in house; host or cells: Sf9 (baculovirus; chaperone CDC37 co-expressed)
T5 sequence (P15056 with tags, fused parts or gaps V600E): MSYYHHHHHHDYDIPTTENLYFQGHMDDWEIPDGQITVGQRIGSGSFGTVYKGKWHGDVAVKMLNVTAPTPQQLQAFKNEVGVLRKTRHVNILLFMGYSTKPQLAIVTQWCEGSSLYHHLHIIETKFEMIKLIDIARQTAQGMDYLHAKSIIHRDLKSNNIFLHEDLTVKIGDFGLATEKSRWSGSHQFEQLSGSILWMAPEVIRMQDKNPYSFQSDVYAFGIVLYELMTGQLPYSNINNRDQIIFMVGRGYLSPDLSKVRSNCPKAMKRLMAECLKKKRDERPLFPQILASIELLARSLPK

FGFR1 = biological target: T6, FGFR1 (Homo sapiens, UniProt P11362, C488A/C584S); test: AlphaScreen kinase assay, FGFR1; details: read-out: IC50, activity toward kinase FGFR
T6 construct: P1351.pET N6 BI-PTP FGFR A458-E765-X C488A, C584S; made in house; host or cells: E. coli (PTP1B co-expressed)
T6 sequence (P11362 458-765 C488A/C584S): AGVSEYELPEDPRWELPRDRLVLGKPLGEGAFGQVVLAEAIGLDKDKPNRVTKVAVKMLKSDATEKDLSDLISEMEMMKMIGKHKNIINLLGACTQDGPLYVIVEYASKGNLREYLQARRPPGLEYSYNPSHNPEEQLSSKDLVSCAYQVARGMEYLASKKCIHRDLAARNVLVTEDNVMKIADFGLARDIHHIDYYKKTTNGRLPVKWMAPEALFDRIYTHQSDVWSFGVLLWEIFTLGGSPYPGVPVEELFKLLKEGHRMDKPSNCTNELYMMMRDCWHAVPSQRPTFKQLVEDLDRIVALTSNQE

EphB2 = biological target: T7, EphB2 (Homo sapiens, UniProt P29323); test: Z'-Lyte FRET kinase assay (Invitrogen), EphB2; details: read-out: IC50, activity toward kinase EphB2
T7 construct: purchased Invitrogen (assay run by Invitrogen)
T7 sequence (P29323 19-1055): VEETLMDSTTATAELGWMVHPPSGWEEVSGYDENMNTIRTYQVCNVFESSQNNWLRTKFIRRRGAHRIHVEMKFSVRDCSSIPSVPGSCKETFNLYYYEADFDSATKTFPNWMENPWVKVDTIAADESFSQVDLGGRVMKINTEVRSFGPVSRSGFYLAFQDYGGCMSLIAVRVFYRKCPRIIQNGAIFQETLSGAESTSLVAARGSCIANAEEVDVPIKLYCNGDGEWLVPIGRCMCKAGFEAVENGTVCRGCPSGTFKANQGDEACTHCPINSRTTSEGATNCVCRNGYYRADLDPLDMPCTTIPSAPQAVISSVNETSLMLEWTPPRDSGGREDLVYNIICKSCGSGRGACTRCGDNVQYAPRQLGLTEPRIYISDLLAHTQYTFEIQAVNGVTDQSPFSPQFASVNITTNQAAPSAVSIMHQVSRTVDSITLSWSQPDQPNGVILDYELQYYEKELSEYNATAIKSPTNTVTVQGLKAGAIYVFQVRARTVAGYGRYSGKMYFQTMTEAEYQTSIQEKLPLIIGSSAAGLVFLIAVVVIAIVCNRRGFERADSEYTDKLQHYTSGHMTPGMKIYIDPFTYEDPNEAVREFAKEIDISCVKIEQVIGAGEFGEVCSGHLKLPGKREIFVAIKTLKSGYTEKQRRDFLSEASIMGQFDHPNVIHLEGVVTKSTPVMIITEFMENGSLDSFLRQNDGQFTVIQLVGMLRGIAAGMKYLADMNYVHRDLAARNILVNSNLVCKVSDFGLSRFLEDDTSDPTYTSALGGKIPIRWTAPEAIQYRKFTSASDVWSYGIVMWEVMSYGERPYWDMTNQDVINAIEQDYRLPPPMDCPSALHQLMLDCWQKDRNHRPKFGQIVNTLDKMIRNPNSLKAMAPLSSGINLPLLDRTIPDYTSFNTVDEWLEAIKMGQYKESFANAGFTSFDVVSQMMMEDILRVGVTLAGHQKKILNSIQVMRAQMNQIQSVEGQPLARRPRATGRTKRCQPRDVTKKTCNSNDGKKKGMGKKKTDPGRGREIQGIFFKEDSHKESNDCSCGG
Outline: as §1

Measured: pIC50

T1 sequence (P10721 with tags, fused parts or gaps): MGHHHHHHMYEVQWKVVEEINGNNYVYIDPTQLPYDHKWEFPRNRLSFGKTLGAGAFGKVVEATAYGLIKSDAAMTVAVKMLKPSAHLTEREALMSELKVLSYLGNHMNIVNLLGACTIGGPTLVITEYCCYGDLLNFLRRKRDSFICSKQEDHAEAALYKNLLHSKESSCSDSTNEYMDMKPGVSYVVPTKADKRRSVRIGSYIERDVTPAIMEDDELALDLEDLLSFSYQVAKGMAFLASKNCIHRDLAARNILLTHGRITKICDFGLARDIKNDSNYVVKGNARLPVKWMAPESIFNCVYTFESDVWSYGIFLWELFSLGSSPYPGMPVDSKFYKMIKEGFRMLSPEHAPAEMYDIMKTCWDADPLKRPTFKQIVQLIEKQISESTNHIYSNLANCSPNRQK

O=C(c1cccc(O)c1F)c1c[nH]c2ncc(-c3ccccc3)cc12 [Compound P-0036, (2-fluoro-3-hydroxy-phenyl)-(5-phenyl-1H-pyrrolo[2,3-b]pyridin-3-yl)-methanone]
≥ 5.00: all assays above

O=C(c1cc(O)ccc1F)c1c[nH]c2ncccc12 [Compound P-0005]
≥ 5.00: all assays above

CS(=O)(=O)c1cccc(-c2cnc3[nH]cc(C(=O)c4c(F)ccc(F)c4F)c3c2)c1 [Compound P-0102, [5-(3-Methanesulfonyl-phenyl)-1H-pyrrolo[2,3-b]pyridin-3-yl]-(2,3,6-trifluoro-phenyl)-methanone]
≥ 5.00: all assays above

O=C(c1ccc(O)cc1Cl)c1c[nH]c2ncccc12 [Compound P-0021]
≥ 5.00: all assays above

O=C(c1cc(O)ccc1F)c1c[nH]c2ncc(Br)cc12 [Compound P-0068, (5-Bromo-1H-pyrrolo[2,3-b]pyridin-3-yl)-(2-fluoro-5-hydroxy-phenyl)-methanone]
not listed: Kit
≥ 5.00: all other assays above

CCCS(=O)(=O)Nc1ccc(F)c(C(=O)c2c[nH]c3ncccc23)c1F [Compound P-0007, Propane-1-sulfonic acid [2,4-difluoro-3-(1H-pyrrolo[2,3-b]pyridine-3-carbonyl)-phenyl]-amide]
≥ 5.00: all assays above

Cc1c(O)cccc1C(=O)c1c[nH]c2ncc(-c3ccccc3)cc12 [Compound P-0016, (3-Hydroxy-2-methyl-phenyl)-(5-phenyl-1H-pyrrolo[2,3b]pyridin-3-yl)-methanone]
≥ 5.00: all assays above

CCCS(=O)(=O)Nc1ccc(F)c(C(=O)c2c[nH]c3ncc(-c4cccnc4)cc23)c1F [Compound P-0088, Propane-1-sulfonic acid [2,4-difluoro-3-(5-pyridin-3-yl-1H-pyrrolo[2,3-b]pyridine-3-carbonyl)-phenyl]-amide]
≥ 5.00: all assays above

O=C(c1cccc(O)c1F)c1c[nH]c2ncc(-c3cccnc3)cc12 [Compound P-0027, (2-Fluoro-3-hydroxy-phenyl)-(5-pyridin-3-yl-1H-pyrrolo[2,3-b]pyridin-3-yl)-methanone]
≥ 5.00: all assays above

O=C(c1cccc(O)c1)c1c[nH]c2ncc(Br)cc12 [Compound P-0019]
≥ 5.00: all assays above

COc1ccc(F)c(C(=O)c2c[nH]c3ncc(-c4cccnc4)cc23)c1 [Compound P-0090]
≥ 5.00: all assays above

O=C(O)/C=C/c1cccc(-c2cnc3[nH]cc(C(=O)c4cc(O)ccc4F)c3c2)c1 [Compound P-0010]
not listed: Kit
≥ 5.00: all other assays above

Oc1cccc(Cc2c[nH]c3ncc(-c4ccsc4)cc23)c1 [Compound P-0056]
not listed: Fms
≥ 5.00: all other assays above

O=C(c1cccc(O)c1F)c1c[nH]c2ncc(Br)cc12 [Compound P-0067, (5-bromo-1H-pyrrolo[2,3-b]pyridin-3-yl)-(2-fluoro-3-hydroxy-phenyl)-methanone]
≥ 5.00: all assays above

Oc1cc(O)cc(Cc2c[nH]c3ncc(-c4ccsc4)cc23)c1 [Compound P-0093]
≥ 5.00: all assays above

O=C(c1cc(O)ccc1F)c1c[nH]c2ncc(-c3ccccc3)cc12 [Compound P-0045]
not listed: Kit
≥ 5.00: all other assays above
